Consider 11 compounds from patent US11279966B2, “Method for identifying compound for inhibiting an activity of a histone lysine demethylase” (NATIONAL TSING HUA UNIVERSITY, priority 2014, dated 2022).

Where only a bound is given, the exact number is not on record here.

One data set has as its system HeLa cells. The settings on record: read-out: cytotoxic IC50 in HeLa cells; cited from earlier work.
Data set [1] deals with T1, FDH (formaldehyde dehydrogenase) (Pseudomonas putida, UniProt P46154).
T1 construct: purchased Sigma
T1 sequence (P46154 1-399): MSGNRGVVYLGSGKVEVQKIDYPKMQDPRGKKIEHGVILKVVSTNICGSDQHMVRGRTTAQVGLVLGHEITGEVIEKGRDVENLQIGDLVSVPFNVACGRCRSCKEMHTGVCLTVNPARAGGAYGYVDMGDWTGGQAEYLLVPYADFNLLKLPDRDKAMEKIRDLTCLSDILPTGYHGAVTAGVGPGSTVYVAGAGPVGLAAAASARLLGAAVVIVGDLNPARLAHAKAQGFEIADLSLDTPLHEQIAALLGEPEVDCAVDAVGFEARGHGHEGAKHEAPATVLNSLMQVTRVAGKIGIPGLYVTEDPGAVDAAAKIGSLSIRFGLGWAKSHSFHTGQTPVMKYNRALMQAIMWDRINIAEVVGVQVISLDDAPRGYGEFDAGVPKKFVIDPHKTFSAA
Description: FDH residual activity (control for the coupling enzyme). More on the design: concentration or dose not given beside the values. The format is biochemical.

The target of a further data set is T2, KDM4B (Homo sapiens, UniProt O94953).
T2 construct: Human KDM4B 1-348 and KDM4A 1-347 were PCR amplified; His6 (N); made in house; host or cells: Escherichia coli BL21 (DE3)
T2 sequence (O94953 1-348): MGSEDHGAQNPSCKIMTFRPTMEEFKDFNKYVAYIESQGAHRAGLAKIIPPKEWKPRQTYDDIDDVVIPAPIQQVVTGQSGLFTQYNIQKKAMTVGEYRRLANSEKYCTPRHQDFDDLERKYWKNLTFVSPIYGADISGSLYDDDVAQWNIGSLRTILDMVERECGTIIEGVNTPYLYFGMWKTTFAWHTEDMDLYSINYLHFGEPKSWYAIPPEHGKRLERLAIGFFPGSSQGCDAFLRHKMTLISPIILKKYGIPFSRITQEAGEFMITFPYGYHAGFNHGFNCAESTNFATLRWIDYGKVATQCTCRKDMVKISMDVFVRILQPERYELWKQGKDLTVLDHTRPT
The data set is described as follows: Formaldehyde dehydrogenase-coupled demethylase assay, KDM4B. Type of data set: biochemical. More on the design: concentration or dose not given beside the values. The conditions noted are these: FDH-coupled assay.

A further data set deals with T3, KDM4A (Homo sapiens, UniProt O75164).
T3 construct: Human KDM4B 1-348 and KDM4A 1-347 were PCR amplified; His6 (N); made in house; host or cells: Escherichia coli BL21 (DE3)
T3 sequence (O75164 1-347): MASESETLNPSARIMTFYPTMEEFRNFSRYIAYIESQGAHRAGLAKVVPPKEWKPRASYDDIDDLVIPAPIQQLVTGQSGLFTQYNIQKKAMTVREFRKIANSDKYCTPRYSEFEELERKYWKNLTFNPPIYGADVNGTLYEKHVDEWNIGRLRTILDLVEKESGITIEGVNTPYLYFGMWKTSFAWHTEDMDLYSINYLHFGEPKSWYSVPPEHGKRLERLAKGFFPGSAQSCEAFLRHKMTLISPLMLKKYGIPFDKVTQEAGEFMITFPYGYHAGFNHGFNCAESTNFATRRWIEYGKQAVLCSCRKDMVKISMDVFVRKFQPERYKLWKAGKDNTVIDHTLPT
The data set is described as follows: Formaldehyde dehydrogenase-coupled demethylase assay, KDM4A. Type of data set: biochemical. More on the design: Demethylase Residual Activity (%): concentration or dose not given beside the values. The settings on record: for Demethylase Residual Activity (%): FDH-coupled assay.

For data set [2], the system named is KDM4A/KDM4B. Description: KDM4A/KDM4B inhibitory assay, results stated in words. The format is biochemical, human. The procedure:
Formaldehyde dehydrogenase-coupled demethylase assay was used to determine the demethylase activity and select the potent inhibitors. All inhibitors were dissolved in dimethyl sulfoxide (DMSO) at various concentrations, and added to the mixture that the final DMSO concentration is 5%. The reagents for demethylase reactions were dissolved in HEPES buffer (50 mM, pH 7.5), with the exception of Fe(II) solutions, which were made using (NH4)2Fe(SO4)2 dissolved in 20 mM HCl to make 400 mM stock solution. All the reagents were stored at −30° C. FDH, NAD+, H-TKQTARK(Me3)[…]-OH (TR-15, H33-17K9me3, Kelowna), DMSO, and KDM4B were added first to 96-well black immune plate (SPL Life Science) and incubated together on ice for 15 min. Then the plate was put into FLUOStar OPTIMA ELISA reader (BMG LABTECH) with 37° C., and the reaction was started by adding ascorbic acid (ascorbate), Fe(II), and α-ketoglutarate (AKG) to final concentration of 50 mM HEPES, pH 7.5, 2 μM of KDM4B, 5% DMSO, 0.01 U FDH (Sigma), 1 mM NAD+, 1 mM 2-OG, 2 mM ascorbate, and 50 μM Fe(II), various concentration of H3K9me3 peptide, and the final volume was 50 μl. Each reaction was incubated at 37° C. for 30 min and the production of NADH would be detected by using the fluorescence Ex 360/Em 470. […]

Data set [3] has as its system LNCaP cells. Description: Microarray gene expression analysis of treated LNCaP cells. Type of data set: cell-based, human. The conditions noted are these: 3 days. Here is the method:
LNCaP cells treated with mock and the 1,5-bis[(E)-2-(3,4-dichlorophenyl) ethenyl]-2,4-dinitrobenzene inhibitor for 3 days were harvested and the total RNA was extracted using Trizol reagent (Life Technologies, NY). Microarray analysis was performed by the University of California Davis Cancer Center Gene Expression Resource, using Affymetrix Human Genome U133A (HG-U133A) GeneChip arrays (Affymetrix, CA), which permit expression analysis of the entire Genbank RefSeq database. Array scanning and generation of raw signal data files were done with GeneChip Operating Software (Affymetrix). Subsequent data analysis was done by GeneSpring (Agilent Technologies, CA) and DAVID Bioinformatic Resources 6.7 (NIH).

Another data set concerns H3K9me3 in LNCaP cells. Description: Cellular level of H3K9me3 in LNCaP cells, immunoblotting. Type of data set: cell-based, human. Here is the method:
(§1) LNCaP cells are infected with lentivirus with control shRNA (control) and shKDM4A or shKDM4B as indicated (left panel). The qRT-PCR analysis is performed to evaluate the expression of KDM4s (right panel). […] LNCaP cells are treated with 1,5-bis[(E)-2-(3,4-dichlorophenyl) ethenyl]-2,4-dinitrobenzene for three days, and the viability is measured by viable cell count. SD is derived from biological triplicates. The level of H3K9me3 of 1,5-bis[(E)-2-(3,4-dichlorophenyl)ethenyl]-2,4-dinitrobenzene-treated cells (24 hr) is detected and quantified by AlphaView SA (Cell Biosciences Inc.). The level of H3K9me3 is shown by bar graph.
(§2) Total cell lysates were obtained by lysing the cell with buffer (50 mM Tris-HCl pH7.5, 150 mM NaCl, 0.5% Triton X-100, 10% glycerol, 1 mM EDTA, protease inhibitors) for 15 min on ice, followed by 10 min of sonication cycle (30 sec on, 30 sec off) on ice. The level of total histone H3 and trimethylated histone H3 Lys9 was analyzed by western blotting using anti-histone H3 and anti-H3K9me3 antibodies (Abcam, MA). Cells treated with mock and the inhibitor were harvested and fixed by 70% ethanol for >4 hours at −20° C., followed by propidium iodide (Sigma Aldrich) staining. The DNA content was analyzed by Becton Dickinson FACScan flow cytometry, and the sub-G1 population was quantified by WinMDI 2.9.
(In western blotting, separated proteins are transferred to a membrane and probed.)

Another data set is described as follows: in vitro. Type of data set: cell-based. The conditions noted are these: human. The procedure:
as §1
Primary PrEC cells were purchased from Clonetics (Walkersville, Md.) and cultured in serum-free prostate epithelial cell growth medium following the vendor's directions. Cell lines RWPE1, LNCaP (LNCaP-FGC), CWR22Rv1 (22Rv1), VCaP, DU145, PC3 (all purchased from ATCC), and PNT2 (Sigma Aldrich, MO), were cultured under condition as recommended. CWR-R1 cell (40) and LNCaP derived C4-2, C4-2B cells were cultured in RPMI1640 medium containing 10% FBS.

For data set [4], the system named is LNCaP cells. Description: Flow cytometric analysis of DNA content (sub-G1, apoptosis) in LNCaP cells. The format is cell-based, human. The settings on record: 50 μM, 3 days; mock 11.9%. The procedure: as §1, §2
Background: Flow cytometry measures light scatter and fluorescence of single cells or particles in a stream.

Data set [5] deals with KDM4A/KDM4B. The conditions noted are these: calf thymus histones as substrate.

For `O=C(O)c1ccc(O)c2ncccc12` [5-carboxy-8HQ], in the data set with HeLa cells, the IC50 is 86.5 µM.
`CCCCCC/C(C)=N/Nc1ccc([N+](=O)[O-])cc1[N+](=O)[O-]` [NSC1018]: the “FDH Residual Activity (%)” value in [1] is on record as over 80%. In addition, the “Demethylase Residual Activity (%)” value on KDM4B amounted to 62%; on KDM4A it was 85%.
On to `C/C(=N/Nc1ccc([N+](=O)[O-])cc1[N+](=O)[O-])c1ccccc1` [NSC6129], for which the “FDH Residual Activity (%)” value in data set [1] is recorded as over 80%. Further, the “Demethylase Residual Activity (%)” value on KDM4B is 52%; on KDM4A, 100%.
On the same counts, the results for `O=C1C=Cc2ccccc2/C1=N/Nc1ccc([N+](=O)[O-])cc1[N+](=O)[O-]` [NSC15975] are over 80%, 90% and 73%.
With `O=C(O)c1ccc(C(=O)c2ccccc2C(=O)O)cc1C(=O)O` [NSC28620], the “FDH Residual Activity (%)” value in [1] is over 80%. In addition, the “inhibitory effect on KDM4A/KDM4B (in words)” value in the data set with KDM4A/KDM4B [2] is on record as “completely lost the inhibitory effects”.
With `COC1CC(OC(=O)c2ccc([N+](=O)[O-])cc2)C(OC(=O)c2ccc([N+](=O)[O-])cc2)C(C)O1` (stereo not shown) [NSC107408], in data set [1], the “FDH Residual Activity (%)” value was over 80%. In addition, the “Demethylase Residual Activity (%)” value at KDM4B worked out at 64%; at KDM4A, 99%. For the same compound, the “inhibitory effect on KDM4A/KDM4B (in words)” value with KDM4A/KDM4B [2] was “no inhibition”.
Take `O=C1C=CC=C/C1=C\Nc1cc(C(=O)O)cc(C(=O)O)c1` [NSC124029]: the “FDH Residual Activity (%)” value in [1] came to 97%. Moreover, the “Demethylase Residual Activity (%)” value came to 62% on KDM4B and 93% on KDM4A.
On to `O=[N+]([O-])c1cc([N+](=O)[O-])c(/C=C/c2ccc(Cl)c(Cl)c2)cc1/C=C/c1ccc(Cl)c(Cl)c1` [NSC636819], for which, in the data set on LNCaP cells [3], the “expression of oncogenes IGF1R, FGFR3, CCNE2, AURKA and AURKB” value was “down-regulation”; the “expression of tumour suppressors RB1, CDH1” value is “up-regulation”. In addition, the “portion of the altered genes found to be androgen responsive genes” value in the data set with LNCaP cells [3] (≥two-fold alterations, 178/656) is recorded as 27%. Further, the “FDH Residual Activity (%)” value in data set [1] is over 80%. In addition, the “demethylating activity toward H3K9me3 in cells” value with H3K9me3 in LNCaP cells (5 μM) is on record as “essentially completely blocked”. The “cellular level of H3K9me3” value in the data set on H3K9me3 in LNCaP cells (24 hr, dose-dependent) was “notable increase”. In addition, the half-inhibitory concentration (IC50) at 3 days in “in vitro” amounted to 21.2 µM. The inhibitory mode entry against KDM4A (against H33-17K9me3) was “competitive”. In addition, in the data set with LNCaP cells [4], the “apoptotic LNCaP cells” value is recorded as 39.5%.
In the case of `COC(=O)C(C(=O)C(=O)Nc1ccc([N+](=O)[O-])cc1[N+](=O)[O-])c1nc2ccc(Cl)cc2[nH]c1=O` (stereo not shown) [NSC640999], in [1], the “FDH Residual Activity (%)” value is listed as over 80%. In addition, the “Demethylase Residual Activity (%)” value is listed as 49% at KDM4B and 77% at KDM4A.
In the case of `C/C(CC(O)(C(F)(F)F)C(F)(F)F)=N/Nc1ccc([N+](=O)[O-])cc1[N+](=O)[O-]` [NSC659196], the “FDH Residual Activity (%)” value in data set [1] is listed as over 80%. Besides, the figures for the “Demethylase Residual Activity (%)” value at KDM4B and at KDM4A were 56% and 92%, respectively.
Take `O=C(O)c1ccnc(C(=O)O)c1` [PD2, pyridine 2,4-dicarboxylic acids, reference compound]: the entries for the “Demethylase Residual Activity (%)” value on KDM4B and at KDM4A were 24% and 21%, respectively. In addition, the “demethylation activity on histones (H3K9me3, H3K36me3 western blot)” value in the data set with KDM4A/KDM4B [5] is given as “blocked the demethylation activity”.

A word on the IC50: it is the point on the concentration scale where inhibition reaches its midpoint.
